The source of these data is US20050112562A1, “Inhibition of retroviral replication through modulation of the host cell ubiquitylation” (Rigel Pharmaceuticals, Inc., priority 2003, published 2005).

Where a SMILES comes first, the peptide text is derived from it. [ ]: non-standard residue; d: D form. The star is where a group is joined. Nle = CCCC[C@H](N)C(=O)O; Cbz = O=C(OCc1ccccc1)*

Assay type in all cases: cell-based
Assay [1] concerns vif-mediated degradation of the luciferase/apobec3G fusion protein in HeLa cells. Nature of the assay: co-transfection of luciferase/apobec3G and vif constructs at varied ratios, luciferase activity (FIG. 4). The conditions noted are these: for luciferase activity: 10 μM or 20 μM inhibitor, luciferase/apobec3G:vif 50:1 (tested 2:1, 25:1, 50:1, 100:1). As for the experimental part: Cells were co-transfected with the luciferase/apobec3G and vif constructs at relative concentrations of 2:1, 25:1, 50:1 and 100:1 (luciferase/apobec3G:vif) in the presence or absence of 10 μM or 20 μM MG132 or ALLN, known inhibitors of proteosome-mediated protein degradation.

The next assay has as its system vif activity. Nature of the assay: vif expressed from different vectors with luciferase/apobec3G in a cell (FIGS. 5A-5E). The note with it: vif from pCMV, pcDNA6, pcDNA6 CTE, pEF6, pEF6 CTE constructs.
Assay [2] deals with vif-mediated degradation of the luciferase/apobec3G fusion protein. The assay is described as follows: transient luciferase/apobec3G fusion reporter with co-introduced vif construct (chemiluminescence, western blot). The conditions noted are these: Phoenix and HeLa cells; band in final lane of each western blot. The text has this:
A construct encoding a luciferase/apobec3G fusion protein was introduced into Phoenix and HeLa cells and transient expression of the luciferase/apobec3G fusion protein was monitored by detecting chemiluminescence. Results were normalized to the number of cells assayed. […] The gels shown at the top of both FIGS. 3A and 3B show results obtained from western blots of cell extracts using antibodies. Tesults obtained using anti-apobec3G and anti-lactate dehydrogenase antibodies are indicated as “3G” and “LDH”, respectively.
This phenomenon is inhibited by adding MG132, a known inhibitor of proteosome-mediated protein degradation (see the band observed in the final lane of each of the western blots). Cells containing both vif and a luciferase/apobec3G reporter can therefore be used to test agents for vif-inhibitory activity.
(In western blotting, separated proteins are transferred to a membrane and probed.)

Consider `CCCC[C@@H](C=O)NC(=O)[C@H](CC(C)C)NC(=O)[C@H](CC(C)C)NC(C)=O` [ALLN] (Ac-Leu-Leu-[Nle]-aldehyde), for which the luciferase activity entry in assay [1] is given as “maximally increased luciferase activity”.

Regarding `CC(C)C[C@@H](C=O)NC(=O)[C@H](CC(C)C)NC(=O)[C@H](CC(C)C)NC(=O)OCc1ccccc1` [MG132] (Cbz-Leu-Leu-Leu-aldehyde), the luciferase activity entry in assay [1] is “maximally increased luciferase activity”. Besides, in assay [1] (in the presence of apobec3G/vif in HeLa cells (FIG. 4 legend)), the “activity of an apobec3G-luciferase fusion” value was “increased activity”. Besides, in the assay on vif activity, the “modulation of vif activity” value is “could be modulated”. In addition, the “vif-caused decrease in luciferase activity / degradation of the luciferase/apobec3G fusion protein” value in assay [2] is recorded as “inhibited”.
